Measured values: US6410575B1, “Viral treatment” (The Procter & Gamble Company, priority 1999, dated 2002)
pIC50: −log10 of the molar value. Where “and” joins values, the source holds several entries; their conditions need not be identical. Identical values can stand only once.

Legend:
[1] = system: U937RF, a protease resistant strain; assay: Long term in vitro study, U937RF; format: cell-based, HIV
Description: (§1) Toxicity quantification involves the XTT-based evaluation. Assays were designed to characterize the long term effects of the compounds on virus production and to characterize the longer term effects of the compounds on virus production from chronically HIV infected cells.
(§2) CEM-SS cells chronically infected with HIV isolate, for example SKI (CEM-SKI) are cultured in RPMI1640 tissue culture medium supplemented with 10% fetal bovine serum and antibiotics. […] CEM-SKI or other infected cells with no added drug are used as the control cells.
(§3) Cells are allowed to grow to a density of approximately 1×10^6 cells/ml and are then passaged at a 1:10 dilution. […] The drug concentration in the flask is then increased two-fold and the cells maintained as above.
(§4) The cell populations contain integrated copies of the HIV genome and constitutively produce HIV at relatively high levels or are latently infected and only produce virus after stimulation with phorbol esters, tumor necrosis factor or IL6(U1 and ACH2). Reductions in virus products were observed when quantifying supernatant reverse transcriptase activity.
The results with U937RF cells were reported at weekly intervals.

vero cells = assay: Herpes simplex testing, toxicity (TC50); parameters: unit not given beside the values
[2] = system: Human Herpes Virus 8 (HHV8); assay: Kaposi's sarcoma / HHV8 DNA copy number in TPA-induced BCBL-1 cells; format: cell-based
Description: The DNA copy number and the toxicity value were measured and compared with Cidofovir. Kaposi's sarcoma (KS) is a cancer that is often found in people with weak immune systems, such as those taking immunosuppressants or those with AIDS. The exact nature of the disease is uncertain, but it is almost always found in association with HHV8.

HIV-2 cell line, CEMROD = assay: Long term in vitro study, CEMROD; format: cell-based
Description: as §1, §2, §3, §4
The results with CEMROD cells was reported at weekly intervals.
The CEMROD cell line is a viral strain of the CEMSS cell line.

[3] = system: HIV-1 cell line, U937IIIB; assay: Long term in vitro study, U937IIIB; format: cell-based
Description: as §1, §2, §3, §4
The results with U937IIIB cells were reported at weekly intervals.
The U937IIIB cell line is viral strain of the U937 cell line.

HIV-1 cell line, CEMIIIB = assay: Long term in vitro study, CEMIIIB; format: cell-based
Description: as §1, §2, §3, §4
The results with CEMIIIB cells was reported at weekly intervals.
The CEMIIIB is a viral strain of the CEMSS cell line.

HSV-2MS = assay: Herpes simplex testing in vero cells; format: cell-based, herpes simplex virus -2; conditions: HSV-2MS in vero cells

With NC(=S)Nc1nsc(-c2ccccc2)n1 the “virus production (supernatant reverse transcriptase activity)” value (shortened to “virus production”) ([1]; 7 μg/ml, day 4) was 1627, the “virus production” value ([1]; 7 μg/ml, day 11) was 1526 and the “virus production” value ([1]; 7 μg/ml, day 18) was 4086. The “virus production” value ([1]; 7 μg/ml, day 25) was 5303, the “virus production” value ([1]; 7 μg/ml, day 32) was 4827 and the “virus production” value ([1]; 7 μg/ml, day 39) was 6008. The “virus production” value ([1]; 7 μg/ml, day 46) was 3586, the “virus production” value ([1]; 7 μg/ml, day 53) was 5726 and the “virus production” value ([1]; 15 μg/ml, day 4) was 1575. For the same compound, the “virus production” value ([1]; 15 μg/ml, day 11) was 1482, the “virus production” value ([1]; 15 μg/ml, day 18) was 3772 and the “virus production” value ([1]; 15 μg/ml, day 25) was 2654. The “virus production” value ([1]; 15 μg/ml, day 32) was 1594, the “virus production” value ([1]; 15 μg/ml, day 39) was 3538 and the “virus production” value ([1]; 15 μg/ml, day 46) was 2426. The “virus production” value ([1]; 15 μg/ml, day 53) was 3976, the “virus production” value ([1]; 30 μg/ml, day 4) was 1751 and the “virus production” value ([1]; 30 μg/ml, day 11) was 1237. The “virus production” value ([1]; 30 μg/ml, day 18) was 2892, the “virus production” value ([1]; 30 μg/ml, day 25) was 735 and the “virus production” value ([1]; 30 μg/ml, day 32) was 1035. The “virus production” value ([1]; 30 μg/ml, day 39) was 1265, the “virus production” value ([1]; 30 μg/ml, day 46) was 1358 and the “virus production” value ([1]; 30 μg/ml, day 53) was 2333. For the same compound, the TC50 (vero cells) was > 200, the “% virus control” value ([2]; 0.64 μM) was 79.1% and the “DNA Copy Number (per 3 μl), average” value ([2]; 0.64 μM) was 12198.1 per 3 μl. For the same compound, the “DNA Copy Number (per 3 μl), sample” value ([2]; 0.64 μM) was 1200.5 per 3 μl and 1258.4 per 3 μl and 1198.4 per 3 μl, the “% virus control” value ([2]; 2 μM) was 71.2% and the “DNA Copy Number (per 3 μl), average” value ([2]; 2 μM) was 1096.9 per 3 μl. For the same compound, the “DNA Copy Number (per 3 μl), sample” value ([2]; 2 μM) was 1100.2 per 3 μl and 1000.7 per 3 μl and 1189.7 per 3 μl, the “% virus control” value ([2]; 6.4 μM) was 67.0% and the “DNA Copy Number (per 3 μl), average” value ([2]; 6.4 μM) was 1032.6 per 3 μl. The “DNA Copy Number (per 3 μl), sample” value ([2]; 6.4 μM) was 1003.5 per 3 μl and 1084.5 per 3 μl and 1009.7 per 3 μl, the “% virus control” value ([2]; 20 μM) was 55.8% and the “DNA Copy Number (per 3 μl), average” value ([2]; 20 μM) was 860.2 per 3 μl. The “DNA Copy Number (per 3 μl), sample” value ([2]; 20 μM) was 747.8 per 3 μl and 841.6 per 3 μl and 991.2 per 3 μl, the “% virus control” value ([2]; 64 μM) was 48.9% and the “DNA Copy Number (per 3 μl), average” value ([2]; 64 μM) was 753.0 per 3 μl. For the same compound, the “% virus control” value ([2]; 200 μM) was 26.6%, the “DNA Copy Number (per 3 μl), average” value ([2]; 200 μM) was 410.7 per 3 μl and the TI ([2]; HHV8, BCBL-1 cells) was “TI = 1.8”. For the same compound, the pIC50 ([2]; Human gammaherpesvirus 8, BCBL1, HHV8 DNA copy number, BCBL-1 cells) was 4.25, the “virus production” value (HIV-2 cell line, CEMROD; 7 μg/ml, day 4) was 6593 and the “virus production” value (HIV-2 cell line, CEMROD; 7 μg/ml, day 11) was 8676. The “virus production” value (HIV-2 cell line, CEMROD; 7 μg/ml, day 18) was 10912, the “virus production” value (HIV-2 cell line, CEMROD; 7 μg/ml, day 25) was 9356 and the “virus production” value (HIV-2 cell line, CEMROD; 7 μg/ml, day 32) was 8803. The “virus production” value (HIV-2 cell line, CEMROD; 7 μg/ml, day 39) was 6655, the “virus production” value (HIV-2 cell line, CEMROD; 7 μg/ml, day 46) was 8280 and the “virus production” value (HIV-2 cell line, CEMROD; 7 μg/ml, day 53) was 7549. The “virus production” value (HIV-2 cell line, CEMROD; 15 μg/ml, day 4) was 6815, the “virus production” value (HIV-2 cell line, CEMROD; 15 μg/ml, day 11) was 8202 and the “virus production” value (HIV-2 cell line, CEMROD; 15 μg/ml, day 18) was 10389. The “virus production” value (HIV-2 cell line, CEMROD; 15 μg/ml, day 25) was 7816, the “virus production” value (HIV-2 cell line, CEMROD; 15 μg/ml, day 32) was 6672 and the “virus production” value (HIV-2 cell line, CEMROD; 15 μg/ml, day 39) was 7087. The “virus production” value (HIV-2 cell line, CEMROD; 15 μg/ml, day 46) was 6457, the “virus production” value (HIV-2 cell line, CEMROD; 15 μg/ml, day 53) was 6544 and the “virus production” value (HIV-2 cell line, CEMROD; 30 μg/ml, day 4) was 6626. For the same compound, the “virus production” value (HIV-2 cell line, CEMROD; 30 μg/ml, day 11) was 6582, the “virus production” value (HIV-2 cell line, CEMROD; 30 μg/ml, day 18) was 7494 and the “virus production” value (HIV-2 cell line, CEMROD; 30 μg/ml, day 25) was 4421. For the same compound, the “virus production” value (HIV-2 cell line, CEMROD; 30 μg/ml, day 32) was 4056, the “virus production” value (HIV-2 cell line, CEMROD; 30 μg/ml, day 39) was 2118 and the “virus production” value (HIV-2 cell line, CEMROD; 30 μg/ml, day 46) was 4117. For the same compound, the “virus production” value (HIV-2 cell line, CEMROD; 30 μg/ml, day 53) was 4779, the “virus production” value ([3]; 7 μg/ml, day 4) was 9368 and the “virus production” value ([3]; 7 μg/ml, day 11) was 8889. The “virus production” value ([3]; 7 μg/ml, day 18) was 7566, the “virus production” value ([3]; 7 μg/ml, day 25) was 5781 and the “virus production” value ([3]; 7 μg/ml, day 32) was 3414. For the same compound, the “virus production” value ([3]; 7 μg/ml, day 39) was 5346, the “virus production” value ([3]; 7 μg/ml, day 46) was 4085 and the “virus production” value ([3]; 7 μg/ml, day 53) was 4832. The “virus production” value ([3]; 15 μg/ml, day 4) was 9710, the “virus production” value ([3]; 15 μg/ml, day 11) was 8025 and the “virus production” value ([3]; 15 μg/ml, day 18) was 5435. For the same compound, the “virus production” value ([3]; 15 μg/ml, day 25) was 6064, the “virus production” value ([3]; 15 μg/ml, day 32) was 2479 and the “virus production” value ([3]; 15 μg/ml, day 39) was 4377. For the same compound, the “virus production” value ([3]; 15 μg/ml, day 46) was 3867, the “virus production” value ([3]; 15 μg/ml, day 53) was 3510 and the “virus production” value ([3]; 30 μg/ml, day 4) was 9549. For the same compound, the “virus production” value ([3]; 30 μg/ml, day 11) was 7639, the “virus production” value ([3]; 30 μg/ml, day 18) was 3551 and the “virus production” value ([3]; 30 μg/ml, day 25) was 4611. The “virus production” value ([3]; 30 μg/ml, day 32) was 1855, the “virus production” value ([3]; 30 μg/ml, day 39) was 2410 and the “virus production” value ([3]; 30 μg/ml, day 46) was 1550. For the same compound, the “virus production” value ([3]; 30 μg/ml, day 53) was 1819, the “virus production” value (HIV-1 cell line, CEMIIIB; 7 μg/ml, day 4) was 4849 and the “virus production” value (HIV-1 cell line, CEMIIIB; 7 μg/ml, day 11) was 6658. The “virus production” value (HIV-1 cell line, CEMIIIB; 7 μg/ml, day 18) was 7078, the “virus production” value (HIV-1 cell line, CEMIIIB; 7 μg/ml, day 25) was 5221 and the “virus production” value (HIV-1 cell line, CEMIIIB; 7 μg/ml, day 32) was 5329. The “virus production” value (HIV-1 cell line, CEMIIIB; 7 μg/ml, day 39) was 7349, the “virus production” value (HIV-1 cell line, CEMIIIB; 7 μg/ml, day 46) was 11262 and the “virus production” value (HIV-1 cell line, CEMIIIB; 7 μg/ml, day 53) was 11286. The “virus production” value (HIV-1 cell line, CEMIIIB; 15 μg/ml, day 4) was 5078, the “virus production” value (HIV-1 cell line, CEMIIIB; 15 μg/ml, day 11) was 5733 and the “virus production” value (HIV-1 cell line, CEMIIIB; 15 μg/ml, day 18) was 6057. The “virus production” value (HIV-1 cell line, CEMIIIB; 15 μg/ml, day 25) was 4980, the “virus production” value (HIV-1 cell line, CEMIIIB; 15 μg/ml, day 32) was 4273 and the “virus production” value (HIV-1 cell line, CEMIIIB; 15 μg/ml, day 39) was 6329. For the same compound, the “virus production” value (HIV-1 cell line, CEMIIIB; 15 μg/ml, day 46) was 10361, the “virus production” value (HIV-1 cell line, CEMIIIB; 15 μg/ml, day 53) was 9844 and the “virus production” value (HIV-1 cell line, CEMIIIB; 30 μg/ml, day 4) was 5251. The “virus production” value (HIV-1 cell line, CEMIIIB; 30 μg/ml, day 11) was 6200, the “virus production” value (HIV-1 cell line, CEMIIIB; 30 μg/ml, day 18) was 6952 and the “virus production” value (HIV-1 cell line, CEMIIIB; 30 μg/ml, day 25) was 4110. The “virus production” value (HIV-1 cell line, CEMIIIB; 30 μg/ml, day 32) was 3337, the “virus production” value (HIV-1 cell line, CEMIIIB; 30 μg/ml, day 39) was 4233 and the “virus production” value (HIV-1 cell line, CEMIIIB; 30 μg/ml, day 46) was 9238. The “virus production” value (HIV-1 cell line, CEMIIIB; 30 μg/ml, day 53) was 3527 and the “TI or therapeutic index” value (HSV-2MS) was > 1.3.
